# From patent US20240009173A1, “Use of 5-HT3-Targeting Drugs for Treatment of Acute Kidney Injury” (priority 2020, published 2024)
# Read-outs that look alike come from different tables or passages of the source.
# Columns and labels:
# [1] = system: patients with AKI; design: species or system human; conditions: in vivo
# [2] = system: ICU patients with AKI; conditions: cited from earlier work
# [3] = system: patients with AKI; conditions: human, in vivo
# [4] = system: patients with AKI; conditions: human, in vivo; remark: listed apart in the source
# [5] = system: all ICU patients; conditions: cited from earlier work
# [6] = system: ICU patients; assay: Anti-emetic use and in-ICU death, logistic regression (Example 3); format: in vivo, human; conditions: outcome in-ICU death
# [7] = system: patients without AKI on admission or prior to receiving drug; assay: Anti-emetic usage and AKI risk in first ICU encounter: usage, max KDIGO category, binary logistic regression (Example 3); format: in vivo, human; conditions: for MAX KDIGO AKI Category 0 (%) / MAX KDIGO AKI Category 0, number of patients / MAX KDIGO AKI Category 1 (%) / MAX KDIGO AKI Category 1, number of patients / MAX KDIGO AKI Category 2 (%) / MAX KDIGO AKI Category 2, number of patients / MAX KDIGO AKI Category 3 (%) / MAX KDIGO AKI Category 3, number of patients: drug users, use before discharge/death or before AKI
# Description: Study Population: The study population excludes patients with end-stage kidney disease and excludes patients with Acute Kidney Injury on admission or prior to receiving drug. […] Metoclopramide is primarily a dopamine D2 receptor antagonist anti-emetic. […] Prochlorperazine is primarily a dopamine receptor antagonist anti-emetic. […] This was a binary logistic regression with an outcome of experiencing any AKI within a first ICU encounter. The independent variable was use of anti-emetic prior to AKI (or before discharge if no AKI). […] The independent variable was use of anti-emetic prior to AKI (or before discharge if no AKI). […] The outcome was experiencing any AKI. The […] was the use of medication within the average time prior to AKI.
# [8] = literature and/or clinical trials
# [9] = use of medication within average time prior to AKI
# [10] = use within average time prior to AKI and Apache Score on ICU admission
# [11] = outcome AKI Category 2 or 3 vs Category 0 or 1, use of anti-emetic prior to AKI (or before discharge)
# [12] = outcome any AKI within first ICU encounter, use of anti-emetic prior to AKI (or before discharge if no AKI)
# [13] = outcome any AKI, use of medication within the average time prior to AKI
molecule,measurement,setting,value
O=C1Nc2ccc(Cl)cc2C(c2ccccc2Cl)=NC1O (centres unmarked) [Lorazepam],Coefficient,[1],0.031
same,Reported for protecting effect in ICU patients with AKI,[2],N
same,Death rate in eICU database,[3],"228.92 per 1,000 patients"
same,Death rate in MIMIC III database,[4],"285.59 per 1,000 patients"
same,Reported for protecting effect in all ICU patients,[5],N
O=S(=O)([O-])[O-].[Mg+2] [Magnesium Sulfate],Coefficient,[1],−0.054
same,Reported for protecting effect in ICU patients with AKI,[2],Y^4
same,Death rate in eICU database,[3],"172.14 per 1,000 patients"
same,Death rate in MIMIC III database,[4],"203.36 per 1,000 patients"
same,Reported for protecting effect in all ICU patients,[5],Y^3
C[C@@H](O)[C@H]1C(=O)N2C(C(=O)O)=C(S[C@@H]3CN[C@H](C(=O)N(C)C)C3)[C@H](C)[C@H]12 [Meropenem],Coefficient,[1],0.076
same,Reported for protecting effect in ICU patients with AKI,[2]; [8],Y^13
same,Death rate in eICU database,[3],"269.96 per 1,000 patients"
same,Death rate in MIMIC III database,[4],"460.50 per 1,000 patients"
same,Reported for protecting effect in all ICU patients,[5]; [8],Y^12
CCN(CC)CCNC(=O)c1cc(Cl)c(N)cc1OC [Metoclopramide],Odds Ratio,[6]; [9],1.270
same,Odds Ratio,[6]; [10],1.08
same,MAX KDIGO AKI Category 0 (%),[7],(72.54) %
same,"MAX KDIGO AKI Category 0, number of patients",[7],"3,830"
same,MAX KDIGO AKI Category 1 (%),[7],(14.05) %
same,"MAX KDIGO AKI Category 1, number of patients",[7],742
same,MAX KDIGO AKI Category 2 (%),[7],(6.91) %
same,"MAX KDIGO AKI Category 2, number of patients",[7],365
same,MAX KDIGO AKI Category 3 (%),[7],(6.50) %
same,"MAX KDIGO AKI Category 3, number of patients",[7],343
same,Odds Ratio,[7]; [11],1.033
same,Odds Ratio,[7]; [12],0.408
same,Odds Ratio,[7]; [13],1.249
same,Reported for protecting effect in ICU patients with AKI,[2]; [8],N
same,Death rate in eICU database,[3],"158.32 per 1,000 patients"
same,Death rate in MIMIC III database,[4],"248.67 per 1,000 patients"
same,Reported for protecting effect in all ICU patients,[5]; [8],N
COCCc1ccc(OCC(O)CNC(C)C)cc1 (centres unmarked) [Metoprolol],Coefficient,[1],−0.051
same,Reported for protecting effect in ICU patients with AKI,[2]; [8],N
same,Death rate in eICU database,[3],"107.87 per 1,000 patients"
same,Death rate in MIMIC III database,[4],"169.99 per 1,000 patients"
same,Reported for protecting effect in all ICU patients,[5]; [8],Y^11
Cc1ncc2n1-c1ccc(Cl)cc1C(c1ccccc1F)=NC2 [Midazolam],Coefficient,[1],0.027
same,Reported for protecting effect in ICU patients with AKI,[2],N
same,Death rate in eICU database,[3],"273.07 per 1,000 patients"
same,Death rate in MIMIC III database,[4],"899.95 per 1,000 patients"
same,Reported for protecting effect in all ICU patients,[5],Y^20
CN1CC[C@]23c4c5ccc(O)c4O[C@H]2[C@@H](O)C=C[C@H]3[C@H]1C5 [Morphine],Coefficient,[1],0.198
same,Reported for protecting effect in ICU patients with AKI,[2],N
same,Death rate in eICU database,[3],"234.81 per 1,000 patients"
same,Death rate in MIMIC III database,[4],"376.48 per 1,000 patients"
same,Reported for protecting effect in all ICU patients,[5],Y^1
NC[C@H](O)c1ccc(O)c(O)c1 [Norepinephrine],Coefficient,[1],0.167
same,Reported for protecting effect in ICU patients with AKI,[2]; [8],N
same,Death rate in eICU database,[3],"336.62 per 1,000 patients"
same,Death rate in MIMIC III database,[4],"497.51 per 1,000 patients"
same,Reported for protecting effect in all ICU patients,[5]; [8],Y^2
COc1ccc2c3c1O[C@H]1C(=O)CC[C@@]4(O)[C@@H](C2)N(C)CC[C@]314 [Oxycodone],Coefficient,[1],−0.089
same,Reported for protecting effect in ICU patients with AKI,[2],N
same,Death rate in eICU database,[3],"55.56 per 1,000 patients"
same,Death rate in MIMIC III database,[4],"94.98 per 1,000 patients"
same,Reported for protecting effect in all ICU patients,[5],Y^9
CN1CCN(CCCN2c3ccccc3Sc3ccc(Cl)cc32)CC1 [Prochlorperazine],Odds Ratio,[6]; [9],0.736
same,Odds Ratio,[6]; [10],0.879
same,MAX KDIGO AKI Category 0 (%),[7],(73.48) %
same,"MAX KDIGO AKI Category 0, number of patients",[7],"2,488"
same,MAX KDIGO AKI Category 1 (%),[7],(14.77) %
same,"MAX KDIGO AKI Category 1, number of patients",[7],500
same,MAX KDIGO AKI Category 2 (%),[7],(5.88) %
same,"MAX KDIGO AKI Category 2, number of patients",[7],199
same,MAX KDIGO AKI Category 3 (%),[7],(5.88) %
same,"MAX KDIGO AKI Category 3, number of patients",[7],199
same,Odds Ratio,[7]; [11],0.90
same,Odds Ratio,[7]; [12],0.457
same,Odds Ratio,[7]; [13],0.988
CC(=O)CC(c1ccccc1)c1c(O)c2ccccc2oc1=O (centres unmarked) [Warfarin],Coefficient,[1],−0.115
same,Reported for protecting effect in ICU patients with AKI,[2]; [8],N
same,Death rate in eICU database,[3],"35.34 per 1,000 patients"
same,Death rate in MIMIC III database,[4],"67.31 per 1,000 patients"
same,Reported for protecting effect in all ICU patients,[5]; [8],Y^1
Heparin,Coefficient,[1],−0.053
same,Reported for protecting effect in ICU patients with AKI,[2]; [8],N
same,Death rate in eICU database,[3],"143.03 per 1,000 patients"
same,Death rate in MIMIC III database,[4],"210.41 per 1,000 patients"
same,Reported for protecting effect in all ICU patients,[5]; [8],Y^10
